Experiments:
N2a cells = assay: Neuroprotection assay, glutamate-induced excitotoxicity in N2a cells; assay type: cell-based; details: 1 h pre-incubation, then 5 mM glutamate 24 h, FIG. 5
Experimental: N2a cells were pre-incubated for 1 h with compounds (II) to (V) and (XII) at the indicated concentrations. Then, cells were treated for 24 h with 5 mM glutamate to induce excitotoxicity, or cytotoxicity in neuronal cells induced by neurotransmitters. Cell viability was quantified by MTT assay. […] Control was set as 100% and data were referred to that value.
Cultured N2A cells were pre-incubated with the compounds II, III, IV, V and XII at the indicated concentrations for 1 h and then treated with 5 mM glutamate to induce excitotoxicity during 24 h (FIG. 5). Cytotoxicity was determined by the MTT method as described in example 3. Results are shown as mean±S.D. from at least three independent experiments, and expressed as percentage of cell viability against the control sample (−). Control was set as 100% and data were referred to that value.

3NP-lesioned mice = assay: Huntington's disease 3NP model, behavioral score; assay type: in vivo, C57BL/6 mice; details: 10 mg/kg i.p., four injections, FIG. 9
Experimental: Mice were subjected to behavioral tests for determining their neurological status after the treatment with compounds I (10 mg/kg) (A), III (10 mg/kg) (B) and XII (10 mg/kg) (C). Hind limb clasping, Locomotor activity, Hind limb dystonia and Truncal Dystonia were rated from 0 to 2 based on severity: a score of 0 typically indicates normal function and 2 seriously affected. Values are expressed as means±SEM for 8 animals per group.
Lesions of the striatum were induced with 3-NP in adult (16 week old; 30 g) male C57BL/6 mice (Harlan Ibérica, Barcelona, Spain). To this end, mice were subjected to seven intraperitoneal (i.p.) injections of 3NP (one injection each 12 hours) at a dose of 50 mg/kg (prepared in phosphate-buffered saline) for 3 days. These animals and their respective non-lesioned controls were used for pharmacological studies with compounds CBG-Q (compound I) and with compounds III and XII (FIG. 9). At least 6-8 animals were used per experimental group. Treatments consisted of four i.p. injections of the compounds at the indicated doses (one injection each 24 hours), or vehicle (DMSO 0.2%, BSA 5% in PBS) 30 min before the injections of 3NP. All animals were euthanized 12 hours after the last 3NP injection. Once euthanized, animals were dissected and their brains were rapidly removed. The right hemisphere was used to dissect the striatum, which was quickly frozen in RNAlater (Sigma-Aldrich, Germany) to analyzed inflammatory markers were by Real Time PCR. The left hemisphere was fixed in fresh 4% paraformaldehyde (in 0.1M phosphate buffered-saline) for 48 hours at 4° C. and embedded in paraffin wax for histological analysis. Mice were subjected to behavioral tests for determining their neurological status. We evaluated the general locomotor activity, the hindlimb clasping and dystonia, and the truncal dystonia. All behavioral tests were conducted prior to drug injections to avoid acute effects of the compounds under investigation.

[1] = test system: COX-2, iNOS, TNFα and IL-6; assay: 3NP model, inflammatory marker mRNAs in the striatum (real-time PCR); assay type: in vivo, C57BL/6 mice; details: 3NP-treated mice, 10 mg/kg, FIG. 10 and FIG. 11
Experimental: Gene expression of inflammatory markers including COX-2, TNFα, IL-6 and iNOS, was down regulated in 3NP+compound III (10 mg/kg) treated mice compared with 3NP+Vehicle mice. Expression levels were calculated using the 2^−ΔΔct method. Values are expressed as means±SEM for 6 animals per group.
Gene expression of inflammatory markers including COX-2, TNFα, IL-6 and iNOS, was down regulated in 3NP+XII (10 mg/kg) treated mice compared with 3NP+Vehicle mice. Expression levels were calculated using the 2^−ΔΔct method. Values are expressed as means±SEM for 6 animals per group.
Lesions of the striatum were induced with 3-NP in adult (16 week old; 30 g) male C57BL/6 mice (Harlan Ibérica, Barcelona, Spain). […] The right hemisphere was used to dissect the striatum, which was quickly frozen in RNAlater (Sigma-Aldrich, Germany) to analyzed inflammatory markers were by Real Time PCR. […] We evaluated the general locomotor activity, the hindlimb clasping and dystonia, and the truncal dystonia. […]
Total RNA was isolated from striata (3NP model) or spinal cord (EAE model) using RNeasy Lipid Tissue Mini Kit (Qiagen, GmbH). The total amount of RNA extracted was quantitated by spectrometry at 260 nm and its purity from the ratio between the absorbance values at 260 and 280 nm. […] Expression levels were calculated using the 2^−ΔΔct method.

PPARg [2] = assay: PPARg transactivation assay in HEK-293 cells (GAL4-PPARγ / GAL4-luc); details: HEK-293 cells, 6 h treatment, FIG. 1
PPARg [3] = assay: PPARg transactivation assay in human dermal primary fibroblasts; assay type: cell-based; details: 6 h treatment, FIG. 2
Description: FIG. 2. PPARg Transactivation Assays in Human Dermal Primary Fibroblasts.

For CCCCCC1=C(NCC)C(=O)C(C/C=C(\C)CCC=C(C)C)=C(O)C1=O [Compound III, 6-(3,7-dimethyl-octa-2,6-dienyl)-5-hydroxy-3-pentyl-2-ethylamino-[1,4]benzoquinone], the “protection from glutamate-induced cytotoxicity (cell viability, MTT)” value (N2a cells) was “protect neuronal cells from glutamate-induced apoptosis”, the “clinical symptoms induced by 3-NP intoxication (hind limb clasping, locomotor activity, hind limb dystonia, truncal dystonia)” value (3NP-lesioned mice) was “clearly alleviates such symptomatology” and the “up-regulation of pro-inflammatory markers COX-2, iNOS, TNFα and IL-6 in the striatum” value [1] was “attenuated the up-regulation”. The “PPARg activation (fold) compared with CBG-Q” value (PPARg [2]) was “higher efficiency than CBG-Q” and the “PPARg activation (fold) compared with CBG-Q” value (PPARg [3]) was “higher efficiency than CBG-Q”.

Reference: US9802880B2, “Cannabigerol derivatives” (VIVACELL BIOTECHNOLOGY ESPAÑA S.L., priority 2014, dated 2017)
